Measured values reported in patent US11395824B2, “5-HT2C receptor agonists and compositions and methods of use” (Arena Pharmaceuticals, Inc., priority 2015, dated 2022).
Where two headings read alike, the source gives them in different places.

Assays:
5-HT2B receptor [1] = target: T1, 5-HT2B receptor (Homo sapiens, UniProt P41595); experiment: IP accumulation assay; assay type: cell-based; details: [3H]inositol phosphates, read-out: IP Accumulation EC50 (nM) 2B
5-HT2A receptor [2] = target: T2, 5-HT2A receptor (Homo sapiens, UniProt P28223); experiment: IP accumulation assay; assay type: cell-based; details: [3H]inositol phosphates, read-out: IP Accumulation EC50 (nM) 2A
T2 sequence (P28223 whole entry): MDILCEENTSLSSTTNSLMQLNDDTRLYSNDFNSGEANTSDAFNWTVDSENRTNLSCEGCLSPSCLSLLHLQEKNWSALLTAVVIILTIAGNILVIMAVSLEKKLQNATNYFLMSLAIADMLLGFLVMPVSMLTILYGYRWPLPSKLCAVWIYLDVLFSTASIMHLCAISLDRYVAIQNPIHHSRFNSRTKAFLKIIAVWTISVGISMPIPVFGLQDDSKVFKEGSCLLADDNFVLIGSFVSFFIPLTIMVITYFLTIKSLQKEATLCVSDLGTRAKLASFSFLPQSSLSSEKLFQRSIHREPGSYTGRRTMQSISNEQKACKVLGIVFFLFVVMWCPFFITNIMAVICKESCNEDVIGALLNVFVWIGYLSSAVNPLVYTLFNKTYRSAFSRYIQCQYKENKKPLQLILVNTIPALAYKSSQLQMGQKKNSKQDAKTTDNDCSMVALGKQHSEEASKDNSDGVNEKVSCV

5-HT2C receptor [3] = target: T3, 5-HT2C receptor (Homo sapiens, UniProt P28335); experiment: IP accumulation assay; assay type: cell-based; details: HEK293 cells expressing recombinant 5-HT2C receptors, [3H]inositol phosphates, 2 h at 37° C.
T3 construct: expressed in transfected cells; host or cells: HEK293
T3 sequence (P28335 33-458): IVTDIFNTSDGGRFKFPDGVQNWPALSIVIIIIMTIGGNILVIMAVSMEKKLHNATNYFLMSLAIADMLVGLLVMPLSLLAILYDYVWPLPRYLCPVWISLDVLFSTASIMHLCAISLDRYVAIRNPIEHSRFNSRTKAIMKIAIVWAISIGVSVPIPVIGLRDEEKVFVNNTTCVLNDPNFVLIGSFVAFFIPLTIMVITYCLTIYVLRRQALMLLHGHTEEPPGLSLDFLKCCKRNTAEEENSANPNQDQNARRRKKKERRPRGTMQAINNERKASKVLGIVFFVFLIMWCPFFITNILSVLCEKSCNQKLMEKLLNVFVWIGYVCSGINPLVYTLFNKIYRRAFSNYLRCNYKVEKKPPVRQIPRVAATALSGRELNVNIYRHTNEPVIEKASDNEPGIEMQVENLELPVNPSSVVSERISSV
Procedure: HEK293 cells expressing recombinant 5-HT2C receptors were added to sterile poly-D-lysine-coated 96-well microtiter plates (35,000 cells/well) and labeled with 0.6 µCi/well of [^3H]inositol in myoinositol-free DMEM for 18 h. Unincorporated [^3H]inositol was removed by aspiration and replaced with fresh myoinositol-free DMEM supplemented with LiCl (10 mM final) and pargyline (10 μM final). Serially diluted test compounds were then added and incubation was conducted for 2 h at 37° C. Incubations were then terminated by lysing cells with the addition of ice-cold 0.1 M formic acid followed by freezing at −80° C. After thawing, total [^3H]inositol phosphates were resolved from [^3H]inositol using AG1-X8 ion exchange resin (Bio-Rad) and [^3H]inositol phosphates were measured by scintillation counting using a Perkin Elmer TopCount® scintillation counter. All EC50 determinations were performed using 10 different concentrations and triplicate determinations were made at each test concentration.

5-HT2A receptor [4] = target: T2, 5-HT2A receptor; experiment: Radioligand binding assay with [125I]DOI; details: competition with [125I]DOI, read-out: DOI Binding Ki (nM) 2A
5-HT2B receptor [5] = target: T1, 5-HT2B receptor; experiment: Radioligand binding assay with [125I]DOI; details: competition with [125I]DOI, read-out: DOI Binding Ki (nM) 2B
5-HT2C receptor [6] = target: T3, 5-HT2C receptor; experiment: Radioligand binding assay with [125I]DOI; details: competition with [125I]DOI, membranes of HEK293 cells expressing recombinant 5-HT2C receptors; read-out: DOI Binding Ki (nM) 2C
Procedure: For the compounds of Table A, the following procedure was used. HEK293 cells stably expressing recombinant 5-HT2C receptors were harvested, suspended in ice-cold phosphate buffered saline, pH 7.4 (PBS), and then centrifuged at 48,000 g for 20 min at 4° C. The resulting cell pellet was then re-suspended in wash buffer containing 20 mM HEPES, pH 7.4 and 0.1 mM EDTA, homogenized on ice using a Brinkman Polytron, and centrifuged (48,000 g for 20 min at 4° C.). The pellet was then resuspended in 20 mM HEPES, pH 7.4, homogenized on ice, and centrifuged (48,000 g for 20 min at 4° C.). Crude membrane pellets were stored at −80° C. until used for radioligand binding assays.
For the compounds of Table A, the following procedure was used. […] Experiments comprised addition of 95 μL of assay buffer (20 mM HEPES, pH 7.4, 10 mM MgCl2), 50 μL of membranes, 50 μL of radioligand stock, and 5 μL of test compound diluted in assay buffer to 96-well microtiter plates, which were then incubated for 1 h at room temperature. Assay incubations were terminated by rapid filtration through PerkinElmer F/C filtration plates under reduced pressure using a 96-well Packard filtration apparatus, followed by washing three times with ice cold assay buffer. Plates were then dried at 45° C. for a minimum of 2 h. Finally, 25 μL of BetaScint™ scintillation cocktail was added to each well and the plates were counted in a Packard TopCount® scintillation counter. In each competition study, test compounds were dosed at ten concentrations with triplicate determinations at each test concentration.

[7] = reports that led to withdrawal by the FDA in 1998; cited from earlier work
[8] = 10 mg BID, patients with type 2 diabetes, cited from earlier work
[9] = patients without diabetes, cited from earlier work
[10] = cited from earlier work
[11] = cited from earlier work; remark: listed apart in the source
[12] = patients with type 2 diabetes, BELVIQ BID
[13] = patients without type 2 diabetes
[14] = pivotal phase 3 program, treated for up to two years

T1 sequence (P41595 whole entry): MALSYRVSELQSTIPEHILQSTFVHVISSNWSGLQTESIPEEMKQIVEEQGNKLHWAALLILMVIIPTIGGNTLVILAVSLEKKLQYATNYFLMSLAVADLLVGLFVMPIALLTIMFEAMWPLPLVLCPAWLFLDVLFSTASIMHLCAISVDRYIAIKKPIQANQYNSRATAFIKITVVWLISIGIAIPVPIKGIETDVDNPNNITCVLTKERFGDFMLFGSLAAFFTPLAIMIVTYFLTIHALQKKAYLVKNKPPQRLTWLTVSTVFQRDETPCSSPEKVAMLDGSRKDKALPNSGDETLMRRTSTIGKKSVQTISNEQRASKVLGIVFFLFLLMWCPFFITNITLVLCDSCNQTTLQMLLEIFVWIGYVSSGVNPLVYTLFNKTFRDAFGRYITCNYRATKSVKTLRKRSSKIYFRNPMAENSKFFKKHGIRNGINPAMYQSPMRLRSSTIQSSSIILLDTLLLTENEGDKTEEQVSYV

CCc1ccc2c3c1C1(CC1)C1(CC1)CC3CCNC2 (stereo not shown) [Compound 101, 8′-ethyl-2′,3′,4′,4a′,5′-pentahydro-1′H-dispiro[cyclopropane-1,6′-cyclopropane-7′,1″- naphtho[1,8-cd]azepine]]
EC50 (5-HT2B receptor [1]): > 100000 nM | EC50 (5-HT2A receptor [2]): > 100000 nM | EC50 (5-HT2C receptor [3]): 2040 nM

CC1(C)CC2CCNCc3cccc(c32)C12CC2 (stereo not shown) [Compound 102, 6′,6′-dimethyl-2′,3′,4′,4a′,5′,6-hexahydro-1′H-spiro[cyclopropane-1,7′-naphtho[1,8-cd]azepine]]
Ki (5-HT2A receptor [4]): 236 nM | Ki (5-HT2B receptor [5]): 255 nM | Ki (5-HT2C receptor [6]): 10.3 nM

Brc1ccc2c3c1CCCC3CCNC2 (stereo not shown) [Compound 106, 8-bromo-1,2,3,4,4a,5,6,7-octahydronaphtho[1,8-cd]azepine]
Ki (5-HT2A receptor [4]): 244 nM | Ki (5-HT2B receptor [5]): 125 nM | Ki (5-HT2C receptor [6]): 105 nM

CC1(C)CC2CCNCc3ccc(F)c(c32)C12CC2 (stereo not shown) [Compound 119, 8′-fluoro-6′,6′-dimethyl-2′,3′,4′,4a′,5′,6′-hexahydro-1′H-spiro[cyclopropane-1,7′-naphtho[1,8-cd]azepine]]
EC50 (5-HT2B receptor [1]): > 100000 nM | EC50 (5-HT2A receptor [2]): > 100000 nM | EC50 (5-HT2C receptor [3]): 391 nM

CC1(C)c2cccc3c2C(CCNC3)CC12CC2 (stereo not shown) [Compound 121, 7,7′-dimethyl-2′,3′,4′,4a′,5′,7′-hexahydro-1′H-spiro[cyclopropane-1,6′-naphtho[1,8-cd]azepine]]
EC50 (5-HT2B receptor [1]): > 100000 nM | Ki (5-HT2A receptor [4]): 423 nM | EC50 (5-HT2A receptor [2]): > 100000 nM | Ki (5-HT2B receptor [5]): 634 nM | EC50 (5-HT2C receptor [3]): 222 nM | Ki (5-HT2C receptor [6]): 27.6 nM

c1cc2c3c(c1)C1(CCC3CCNC2)CC1 (stereo not shown) [Compound 128, 2′,3′,4′,4a′,5′,6′-hexahydro-1′H-spiro[cyclopropane-1,7′-naphtho[1,8-cd]azepine]]
EC50 (5-HT2B receptor [1]): 284 nM | EC50 (5-HT2A receptor [2]): > 100000 nM | EC50 (5-HT2C receptor [3]): 108 nM

c1cc2c3c(c1)C1(CC1)C1(CC1)CC3CCNC2 (stereo not shown) [Compound 130, 2′,3′,4′,4a′,5′-pentahydro-1′H-dispiro[cyclopropane-1,6′-cyclopropane-7′,1″- naphtho[1,8-cd]azepine]]
EC50 (5-HT2B receptor [1]): 967 nM | Ki (5-HT2A receptor [4]): 34.4 nM | EC50 (5-HT2A receptor [2]): 465 nM | Ki (5-HT2B receptor [5]): 75.7 nM | EC50 (5-HT2C receptor [3]): 5.21 nM | Ki (5-HT2C receptor [6]): 1.96 nM

c1cc2c3c(c1)C1(CCC1)CCC3CCNC2 (stereo not shown) [Compound 131, 2′,3′,4′,4a′,5′,6′-hexahydro-1′H-spiro[cyclobutane-1,7′-naphtho[1,8-cd]azepine]]
EC50 (5-HT2B receptor [1]): > 100000 nM | EC50 (5-HT2A receptor [2]): > 100000 nM | EC50 (5-HT2C receptor [3]): 83.5 nM

CC1(C)CCC2CCNCc3cccc1c32 (stereo not shown) [Compound 135, 7,7-dimethyl-1,2,3,4,4a,5,6,7-octahydronaphtho[1,8-cd]azepine]
Ki (5-HT2A receptor [4]): 458 nM | Ki (5-HT2B receptor [5]): 395 nM | Ki (5-HT2C receptor [6]): 69.6 nM

CCN[C@@H](C)Cc1cccc(C(F)(F)F)c1 [d-fenfluramine]
share of patients with reported cardiac valve defects [7]: up to one third

C[C@H]1CNCCc2ccc(Cl)cc21 [lorcaserin, (R)-8-chloro-1-methyl-2,3,4,5-tetrahydro-1H-3-benzazepine]
reduction in HbA1c ([8]; placebo 0.4%): 0.9% | reduction in fasting glucose ([8]; placebo 11.9%): 27.4% | change of insulin resistance (HOMA-IR) ([9]; one study, placebo −0.2): −0.4 | change of fasting insulin ([9]; one study, placebo −1.3 μIU/mL): −3.3 μIU/mL | change of mean fasting glucose ([9]; placebo +0.6 mg/dL): -0.2 mg/dL | patients who decreased the total daily dose of medications used for treatment of dyslipidemia [10, 12]: 5.5% | patients who increased use of medications used for treatment of dyslipidemia [10, 12]: 3.1% | decrease of mean daily doses of sulfonylureas and thiazolidinediones ([10]; patients with type 2 diabetes, BELVIQ groups): 16-24% | patients who decreased total daily dose of antihypertensive medications ([10]; patients with type 2 diabetes): 8.2% | patients who increased total daily dose of antihypertensive medications ([10]; patients with type 2 diabetes): 6.6% | patients who decreased the total daily dose of medications used for treatment of dyslipidemia [10, 13]: 1.3% | patients who decreased total daily dose of antihypertensive medications [10, 13]: 2.2% | patients who increased total daily dose of antihypertensive medications [10, 13]: 2.2% | patients who increased use of medications used for treatment of dyslipidemia [10, 13]: 2.6% | share of excess body weight lost ([11]; first phase 3 trial, based on a normal BMI of 25): about one-third | risk of cardiac valvulopathy ([11]; phase 3 program): did not increase the risk of cardiac valvulopathy | proportion of patients that achieved at least 5% weight loss [11, 14]: About two-thirds | proportion of patients that achieved at least 10% weight loss [11, 14]: over one-third | average weight lost as share of their weight ([11]; pivotal phase 3 program): about 8% | average weight loss, top quartile of patients ([11]; second phase 3 trial): 35 pounds | average weight loss, top quartile of patients, of body weight ([11]; second phase 3 trial): 16%
